US11084808B2, “Oxopicolinamide derivative, preparation method therefor and pharmaceutical use thereof” (Jiangsu Hengrui Medicine Co., Ltd., priority 2016, dated 2021)

What follows are compounds tested on human blood (assay: In vitro anticoagulant effect on human blood (APTT, CT2)). Conditions: Table 2; concentration of the compound corresponding to 2 times the APTT of the blank control; human plasma.
Assay type: biochemical
Method: Test Example 2: Determination of In Vitro Anticoagulant Effect of the Compounds of the Present Invention on Human Blood
1. Experimental Materials
Plasma: Human blood was collected in blood collection tubes containing no anticoagulant, and then 3.8% sodium citrate (volume ratio 1:9) was added. The tubes were centrifuged at 2500 rpm for 10 minutes at room temperature, and then the plasma was collected and stored at −80° C.:
Reagents: APTT reagent (Activated partial thromboplastin time assay kit, SIEMENS, Art. No. B4218-1), calcium chloride solution;
Instrument: Coagulation instrument (SYSMEX, CA-500).
The divided plasma was melted at room temperature and mixed well. 10000 μM the test compound dissolved in 100% DMSO was diluted to 3000, 300, 200, 150, 75, 30, 10, 3, 0.3 μM with 100% DMSO, and the blank was 100% DMSO. The reagent, plasma, and compound were placed in corresponding positions in the coagulation instrument, and APTT detection of the compound was carried out.
Curve fitting was carried out by graphpad and CT2 was calculated, i.e., the concentration of the compound corresponding to 2 times the APTT of the blank control.

Row | Compound | CT2 (compound concentration doubling APTT) [µM]
1 | [2H]C([2H])([2H])Oc1cn([C@@H](Cc2ccccc2)C(=O)Nc2ccc(C(=O)O)cc2)c(=O)cc1-c1cc(Cl)ccc1C(C)=O [Example 179, 4-[[(2S)-2-[4-(2-acetyl-5-chloro-phenyl)-2-oxo-5-(trideuteromethoxy)-1-pyridyl]-3-phenyl-propionyl]amino]benzoic acid] | 3.3
2 | CCC(=O)c1ccc(Cl)cc1-c1cc(=O)n([C@@H](CCOC(C)(C)C)C(=O)Nc2ccc(C(=O)O)cc2)cc1OC [Example 108, (S)-4-(4-(tert-butoxy)-2-(4-(5-chloro-2-propionylphenyl)-5-methoxy-2-oxopyridin-1(2H)-yl)butanamido)benzoic acid] | 1.4
3 | COc1cn([C@@H](CCOC2CCC2)C(=O)Nc2ccc(C(=O)O)cc2)c(=O)cc1-c1cc(Cl)ccc1C(C)=O [Example 164, (S)-4-(2-(4-(2-acetyl-5-chlorophenyl)-5-methoxy-2-oxopyridin-1(2H)-yl)-4-cyclobutoxybutanamido)benzoic acid] | 6.4
4 | COCCC(C(=O)Nc1ccc2[nH]c(C(=O)O)cc2c1)n1cc(OC)c(-c2cc(Cl)ccc2C(C)=O)cc1=O (centres unmarked) [Example 1, 5-(2-(4-(2-acetyl-5-chlorophenyl)-5-methoxy-2-oxopyridin-1(2H)-yl)-4-methoxybutanamido)-1H-indole-2-carboxylic acid] | 4.4
5 | COc1cn([C@@H](Cc2cccc(C#N)c2)C(=O)Nc2ccc(C(=O)O)cc2)c(=O)cc1-c1cc(Cl)ccc1C(C)=O [Example 89, (S)-4-(2-(4-(2-acetyl-5-chlorophenyl)-5-methoxy-2-oxopyridin-1(2H)-yl)-3-(3-cyanophenyl)propanamido)benzoic acid] | 5.7
6 | [2H]c1c([2H])c([2H])c(C([2H])([2H])[C@@H](C(=O)Nc2ccc(C(=O)O)cc2)n2cc(OC)c(-c3cc(Cl)ccc3C(C)=O)cc2=O)c([2H])c1[2H] [Example 181, 4-[[(2S)-2-[4-(2-acetyl-5-chloro-phenyl)-5-methoxy-2-oxo-1-pyridyl]-3,3-dideutero-3-(2,3,4,5,6-pentadeuterophenyl)propionyl]amino]benzoic acid] | 2.3
7 | CNC(=O)c1ccc(NC(=O)[C@H](Cc2ccccc2)n2cc(OC)c(-c3cc(Cl)ccc3C(C)=O)cc2=O)cc1 [Example 13, (S)-4-(2-(4-(2-acetyl-5-chlorophenyl)-5-methoxy-2-oxopyridin-1(2H)-yl)-3-phenylpropanamido)-N-methylbenzamide] | 6.0
8 | COc1cn([C@H](Cc2ccccc2)C(=O)Nc2ccc(C(=O)O)cc2)c(=O)cc1-c1cc(Cl)ccc1C(C)=O [Example 6, (R)-4-(2-(4-(2-acetyl-5-chlorophenyl)-5-methoxy-2-oxopyridin-1(2H)-yl)-3-phenylpropanamido)benzoic acid] | >10000
9 | COc1cn([C@H](Cc2ccccn2)C(=O)Nc2ccc(C(=O)O)cc2)c(=O)cc1-c1cc(Cl)ccc1C(C)=O [Example 81, (R)-4-(2-(4-(2-acetyl-5-chlorophenyl)-5-methoxy-2-oxopyridin-1(2H)-yl)-3-(pyridin-2-yl)propanamido)benzoic acid] | >10000
10 | COc1cn([C@H](CC2CCC2)C(=O)Nc2ccc(C(=O)O)cc2)c(=O)cc1-c1c(C(C)=O)ccc(Cl)c1F [Example 160, (R)-4-(2-(4-(6-acetyl-3-chloro-2-fluorophenyl)-5-methoxy-2-oxopyridin-1(2H)-yl)-3-cyclobutylpropanamido)benzoic acid] | 3.8
11 | CCC(=O)c1ccc(Cl)cc1-c1cc(=O)n(C(Cc2ccn(C)n2)C(=O)Nc2ccc(C(=O)O)cc2)cc1OC (centres unmarked) [Example 99, 4-(2-(4-(5-chloro-2-propionylphenyl)-5-methoxy-2-oxopyridin-1(2H)-yl)-3-(1-methyl-1H-pyrazol-3-yl)propanamido)benzoic acid] | 3.5
12 | CCNC(=O)c1ccc(NC(=O)[C@H](Cc2ccccc2)n2cc(OC)c(-c3cc(Cl)ccc3C(C)=O)cc2=O)cc1 [Example 37, (S)-4-(2-(4-(2-acetyl-5-chlorophenyl)-5-methoxy-2-oxopyridin-1(2H)-yl)-3-phenylpropanamido)-N-ethylbenzamide] | 7.8
13 | COc1cn([C@H](CCOC(C)(C)C)C(=O)Nc2ccc(C(=O)O)cc2)c(=O)cc1-c1cc(Cl)ccc1C(C)=O [Example 112, (R)-4-(2-(4-(2-acetyl-5-chlorophenyl)-5-methoxy-2-oxopyridin-(2H)-yl)-4-(tert-butoxy)butanamido)benzoic acid] | >10000
14 | COCC[C@H](C(=O)Nc1ccc2[nH]c(C(=O)O)cc2c1)n1cc(OC)c(-c2cc(Cl)ccc2C(C)=O)cc1=O [Example 3, (R)-5-(2-(4-(2-acetyl-5-chlorophenyl)-5-methoxy-2-oxopyridin-1(2H)-yl)-4-methoxybutanamido)-1H-indole-2-carboxylic acid] | >10000
15 | COc1cn([C@@H](Cc2ccccn2)C(=O)Nc2ccc(C(=O)O)cc2)c(=O)cc1-c1cc(Cl)ccc1C(C)=O [Example 80, (S)-4(2-(4-(2-acetyl-5-chlorophenyl)-5-methoxy-2-oxopyridin-1(2H)-yl)-3-(pyridin-2-yl)propanamido)benzoic acid] | 7.9
16 | CCC(=O)c1ccc(Cl)cc1-c1cc(=O)n(C(Cc2ccn(C3CC3)n2)C(=O)Nc2ccc(C(=O)O)cc2)cc1OC (centres unmarked) [Example 91, 4-(2-(4-(5-chloro-2-propionylphenyl)-5-methoxy-2-oxopyridin-(2H)-yl)-3-(1-cyclopropyl-1H-pyrazol-3-yl)propanamido)benzoic acid] | 2.1
17 | COc1cn([C@@H](Cc2ccccc2)C(=O)Nc2ccc(C(=O)O)cc2)c(=O)cc1-c1cc(Cl)ccc1C(C)=O [Example 5, (S)-4-(2-(4-(2-acetyl-5-chlorophenyl)-5-methoxy-2-oxopyridin-1(2H)-yl)-3-phenylpropanamido)benzoic acid] | 2.0
18 | COc1cn([C@H](CCOC2CCC2)C(=O)Nc2ccc(C(=O)O)cc2)c(=O)cc1-c1cc(Cl)ccc1C(C)=O [Example 163, (R)-4-(2-(4-(2-acetyl-5-chlorophenyl)-5-methoxy-2-oxopyridin-1(2H)-yl)-4-cyclobutoxybutanamido)benzoic acid] | >10000
19 | CCC(=O)c1ccc(Cl)cc1-c1cc(=O)n([C@@H](Cc2ccn(C3CC3)n2)C(=O)Nc2ccc(C(=O)O)cc2)cc1OC [Example 92, (S)-4-(2-(4-(5-chloro-2-propionylphenyl)-5-methoxy-2-oxopyridin-1(2H)-yl)-3-(1-cyclopropyl-1H-pyrazol-3-yl)propanamido)benzoic acid] | 1.2
20 | CCC(=O)c1ccc(Cl)cc1-c1cc(=O)n(C(CC2CCCCO2)C(=O)Nc2ccc(C(=O)O)cc2)cc1OC (centres unmarked) [Example 166] | 7.2
21 | COc1cn([C@@H](Cc2ccccc2)C(=O)Nc2ccc(C(=O)O)cc2)c(=O)cc1-c1c(C(C)=O)ccc(Cl)c1F [Example 31, (S)-4-(2-(4-(6-acetyl-3-chloro-2-fluorophenyl)-5-methoxy-2-oxopyridin-1(2H)-yl)-3-phenylpropanamido)benzoic acid] | 8.5
22 | COc1cn(C(Cc2ccn(C3CC3)n2)C(=O)Nc2ccc3nccnc3c2)c(=O)cc1-c1cc(Cl)ccc1C(C)=O (centres unmarked) [Example 96, 2-(4-(2-acetyl-5-chlorophenyl)-5-methoxy-2-oxopyridin-1(2H)-yl)-3-(1-cyclopropyl-1H-pyrazol-3-yl)-N-(quinoxalin-6-yl)propanamide] | 6.7
23 | COc1cn([C@@H](Cc2ccn(C3CC3)n2)C(=O)Nc2ccc(C(=O)O)cc2)c(=O)cc1-c1cc(Cl)ccc1C(C)=O [Example 94, (S)-4-(2-(4-(2-acetyl-5-chlorophenyl)-5-methoxy-2-oxopyridin-1(2H)-yl)-3-(1-cyclopropyl-1H-pyrazol-3-yl)propanamido)benzoic acid] | 2.2
24 | [2H]C([2H])([2H])Oc1cn([C@@H](CCOC(C)(C)C)C(=O)Nc2ccc(C(=O)O)cc2)c(=O)cc1-c1cc(Cl)ccc1C(=O)CC [Example 177, 4-[[(2S)-4-tert-butoxy-2-[4-(5-chloro-2-propionyl-phenyl)-2-oxo-5-(trideuteromethoxy)-1-pyridyl]butyryl]amino]benzoic acid] | 1.5
25 | CCC(=O)c1ccc(Cl)cc1-c1cc(=O)n([C@H](CCOC(C)(C)C)C(=O)Nc2ccc(C(=O)O)cc2)cc1OC [Example 109, (R)-4-(4-(tert-butoxy)-2-(4-(5-chloro-2-propionylphenyl)-5-methoxy-2-oxopyridin-1(2H)-yl)butanamido)benzoic acid] | >10000
26 | COc1cn([C@@H](Cc2ccccc2)C(=O)Nc2ccc3nn(C)cc3c2)c(=O)cc1-c1cc(Cl)ccc1C(C)=O [Example 20, (S)-2-(4-(2-acetyl-5-chlorophenyl)-5-methoxy-2-oxopyridin-1(2H)-yl)-N-(2-methyl-2H-indazol-5-yl)-3-phenylpropanamide] | 6.5
